{"source": "PubChem BioAssay AID1963966", "about": "(Molecular Pharmacology Branch, DTP, NCI, 2024);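 note: compound exposure lasted seven days before viability was read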;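 for viability, T/C: percent of vehicle DMSO treated spheroid viability so 100% = untreated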", "test_system": "935938-334-R-J1-PDC spheroids with HUVEC/MSC, viability", "assay": "Anticancer human tumor 935938-334-R-J1-PDC patient-derived small intestine adenocarcinoma cell line growth inhibition [PI3K]", "conditions": "for IC50: curve of first compound; for viability, T/C: stronger effect = lower value", "in_short": "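Three cell types, namely tumor cells, endothelial cells and mesenchymal stem cells, formed each spheroid. Combinations with four PI3K inhibitors were screened at clinically achievable concentrations decreasing by half-log, and spheroid viability was recorded.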", "key": {"[1]": {"conditions": "second compound 0.0316 µM, first compound 0.0316 µM"}, "[2]": {"conditions": "second compound 0.0316 µM, first compound 0.1 µM"}, "[3]": {"conditions": "second compound 0.0316 µM, first compound 0.316 µM"}, "[4]": {"conditions": "second compound 0.0316 µM, first compound 1 µM"}, "[5]": {"conditions": "second compound 0.0316 µM, first compound 3.16 µM"}, "[6]": {"conditions": "second compound 0.0316 µM, first compound 10 µM"}, "[7]": {"conditions": "second compound 0.1 µM, first compound 0.0316 µM"}, "[8]": {"conditions": "second compound 0.1 µM, first compound 0.1 µM"}, "[9]": {"conditions": "second compound 0.1 µM, first compound 0.316 µM"}, "[10]": {"conditions": "second compound 0.1 µM, first compound 1 µM"}, "[11]": {"conditions": "second compound 0.1 µM, first compound 3.16 µM"}, "[12]": {"conditions": "second compound 0.1 µM, first compound 10 µM"}, "[13]": {"conditions": "second compound 0.316 µM, first compound 0.0316 µM"}, "[14]": {"conditions": "second compound 0.316 µM, first compound 0.1 µM"}, "[15]": {"conditions": "second compound 0.316 µM, first compound 0.316 µM"}, "[16]": {"conditions": "second compound 0.316 µM, first compound 1 µM"}, "[17]": {"conditions": "second compound 0.316 µM, first compound 3.16 µM"}, "[18]": {"conditions": "second compound 0.316 µM, first compound 10 µM"}, "[19]": {"conditions": "second compound 1 µM, first compound 0.0316 µM"}, "[20]": {"conditions": "second compound 1 µM, first compound 0.1 µM"}, "[21]": {"conditions": "second compound 1 µM, first compound 0.316 µM"}, "[22]": {"conditions": "second compound 1 µM, first compound 1 µM"}, "[23]": {"conditions": "second compound 1 µM, first compound 3.16 µM"}, "[24]": {"conditions": "second compound 1 µM, first compound 10 µM"}, "[25]": {"conditions": "second compound 3.16 µM, first compound 0.0316 µM"}, "[26]": {"conditions": "second compound 3.16 µM, first compound 0.1 µM"}, "[27]": {"conditions": "second compound 3.16 µM, first compound 0.316 µM"}, "[28]": {"conditions": "second compound 3.16 µM, first compound 1 µM"}, "[29]": {"conditions": "second compound 3.16 µM, first compound 3.16 µM"}, "[30]": {"conditions": "second compound 3.16 µM, first compound 10 µM"}, "[31]": {"conditions": "second compound 10 µM, first compound 0.0316 µM"}, "[32]": {"conditions": "second compound 10 µM, first compound 0.1 µM"}, "[33]": {"conditions": "second compound 10 µM, first compound 0.316 µM"}, "[34]": {"conditions": "second compound 10 µM, first compound 1 µM"}, "[35]": {"conditions": "second compound 10 µM, first compound 3.16 µM"}, "[36]": {"conditions": "second compound 10 µM, first compound 10 µM"}}}
{"smiles": "CC(C)NCC(C(=O)N1CCN(c2ncnc3c2C(C)CC3O)CC1)c1ccc(Cl)cc1", "note": "(centres undefined) + CC(Nc1ncnc2nc[nH]c12)c1cc2cccc(Cl)c2c(=O)n1-c1ccccc1", "values": [{"measurement": "IC50", "setting": "second compound 0.0316 µM", "result": 7.26, "unit": "µM"}, {"measurement": "IC50", "setting": "second compound 0.1 µM", "result": 3.42, "unit": "µM"}, {"measurement": "IC50", "setting": "second compound 0.316 µM", "result": 6.42, "unit": "µM"}, {"measurement": "IC50", "setting": "second compound 1 µM", "result": 1.78, "unit": "µM"}, {"measurement": "IC50", "setting": "second compound 3.16 µM", "result": 2.56, "unit": "µM"}, {"measurement": "IC50", "setting": "second compound 10 µM", "result": 1.9, "unit": "µM"}, {"measurement": "viability, T/C", "setting": "[1]", "result": 75.5, "unit": "%"}, {"measurement": "viability, T/C", "setting": "[2]", "result": 80, "unit": "%"}, {"measurement": "viability, T/C", "setting": "[3]", "result": 72.4, "unit": "%"}, {"measurement": "viability, T/C", "setting": "[4]", "result": 64, "unit": "%"}, {"measurement": "viability, T/C", "setting": "[5]", "result": 78.6, "unit": "%"}, {"measurement": "viability, T/C", "setting": "[6]", "result": 40.6, "unit": "%"}, {"measurement": "viability, T/C", "setting": "[7]", "result": 91.7, "unit": "%"}, {"measurement": "viability, T/C", "setting": "[8]", "result": 69.4, "unit": "%"}, {"measurement": "viability, T/C", "setting": "[9]", "result": 79.6, "unit": "%"}, {"measurement": "viability, T/C", "setting": "[10]", "result": 60.5, "unit": "%"}, {"measurement": "viability, T/C", "setting": "[11]", "result": 55.1, "unit": "%"}, {"measurement": "viability, T/C", "setting": "[12]", "result": 34.1, "unit": "%"}, {"measurement": "viability, T/C", "setting": "[13]", "result": 93.1, "unit": "%"}, {"measurement": "viability, T/C", "setting": "[14]", "result": 93, "unit": "%"}, {"measurement": "viability, T/C", "setting": "[15]", "result": 60.6, "unit": "%"}, {"measurement": "viability, T/C", "setting": "[16]", "result": 58, "unit": "%"}, {"measurement": "viability, T/C", "setting": "[17]", "result": 65.8, "unit": "%"}, {"measurement": "viability, T/C", "setting": "[18]", "result": 42.3, "unit": "%"}, {"measurement": "viability, T/C", "setting": "[19]", "result": 100, "unit": "%"}, {"measurement": "viability, T/C", "setting": "[20]", "result": 87.3, "unit": "%"}, {"measurement": "viability, T/C", "setting": "[21]", "result": 59.5, "unit": "%"}, {"measurement": "viability, T/C", "setting": "[22]", "result": 67.2, "unit": "%"}, {"measurement": "viability, T/C", "setting": "[23]", "result": 40.5, "unit": "%"}, {"measurement": "viability, T/C", "setting": "[24]", "result": 31.4, "unit": "%"}, {"measurement": "viability, T/C", "setting": "[25]", "result": 64.6, "unit": "%"}, {"measurement": "viability, T/C", "setting": "[26]", "result": 78.1, "unit": "%"}, {"measurement": "viability, T/C", "setting": "[27]", "result": 70, "unit": "%"}, {"measurement": "viability, T/C", "setting": "[28]", "result": 64.1, "unit": "%"}, {"measurement": "viability, T/C", "setting": "[29]", "result": 44.1, "unit": "%"}, {"measurement": "viability, T/C", "setting": "[30]", "result": 49.6, "unit": "%"}, {"measurement": "viability, T/C", "setting": "[31]", "result": 69.5, "unit": "%"}, {"measurement": "viability, T/C", "setting": "[32]", "result": 59.8, "unit": "%"}, {"measurement": "viability, T/C", "setting": "[33]", "result": 65.5, "unit": "%"}, {"measurement": "viability, T/C", "setting": "[34]", "result": 62, "unit": "%"}, {"measurement": "viability, T/C", "setting": "[35]", "result": 40.1, "unit": "%"}, {"measurement": "viability, T/C", "setting": "[36]", "result": 40.8, "unit": "%"}]}
{"smiles": "CC1(C)CCC(CN2CCN(c3ccc(C(=O)NS(=O)(=O)c4ccc(NCC5CCOCC5)c([N+](=O)[O-])c4)c(Oc4cnc5[nH]ccc5c4)c3)CC2)=C(c2ccc(Cl)cc2)C1", "note": "+ CC(Nc1ncnc2nc[nH]c12)c1cc2cccc(Cl)c2c(=O)n1-c1ccccc1", "values": [{"measurement": "IC50", "setting": "second compound 0.0316 µM", "result": 6.28, "unit": "µM"}, {"measurement": "IC50", "setting": "second compound 0.1 µM", "result": 6.66, "unit": "µM"}, {"measurement": "IC50", "setting": "second compound 0.316 µM", "result": 6.04, "unit": "µM"}, {"measurement": "IC50", "setting": "second compound 1 µM", "result": 6.82, "unit": "µM"}, {"measurement": "IC50", "setting": "second compound 3.16 µM", "result": 6.73, "unit": "µM"}, {"measurement": "IC50", "setting": "second compound 10 µM", "result": 5.59, "unit": "µM"}, {"measurement": "viability, T/C", "setting": "[1]", "result": 98.3, "unit": "%"}, {"measurement": "viability, T/C", "setting": "[2]", "result": 93.6, "unit": "%"}, {"measurement": "viability, T/C", "setting": "[3]", "result": 90.8, "unit": "%"}, {"measurement": "viability, T/C", "setting": "[4]", "result": 88.8, "unit": "%"}, {"measurement": "viability, T/C", "setting": "[5]", "result": 89, "unit": "%"}, {"measurement": "viability, T/C", "setting": "[6]", "result": 23.5, "unit": "%"}, {"measurement": "viability, T/C", "setting": "[7]", "result": 98.2, "unit": "%"}, {"measurement": "viability, T/C", "setting": "[8]", "result": 104, "unit": "%"}, {"measurement": "viability, T/C", "setting": "[9]", "result": 94.3, "unit": "%"}, {"measurement": "viability, T/C", "setting": "[10]", "result": 105, "unit": "%"}, {"measurement": "viability, T/C", "setting": "[11]", "result": 95.1, "unit": "%"}, {"measurement": "viability, T/C", "setting": "[12]", "result": 25.2, "unit": "%"}, {"measurement": "viability, T/C", "setting": "[13]", "result": 104, "unit": "%"}, {"measurement": "viability, T/C", "setting": "[14]", "result": 98.9, "unit": "%"}, {"measurement": "viability, T/C", "setting": "[15]", "result": 105, "unit": "%"}, {"measurement": "viability, T/C", "setting": "[16]", "result": 93.8, "unit": "%"}, {"measurement": "viability, T/C", "setting": "[17]", "result": 86.7, "unit": "%"}, {"measurement": "viability, T/C", "setting": "[18]", "result": 22.3, "unit": "%"}, {"measurement": "viability, T/C", "setting": "[19]", "result": 80.7, "unit": "%"}, {"measurement": "viability, T/C", "setting": "[20]", "result": 94.1, "unit": "%"}, {"measurement": "viability, T/C", "setting": "[21]", "result": 69.1, "unit": "%"}, {"measurement": "viability, T/C", "setting": "[22]", "result": 102, "unit": "%"}, {"measurement": "viability, T/C", "setting": "[23]", "result": 92.7, "unit": "%"}, {"measurement": "viability, T/C", "setting": "[24]", "result": 31.2, "unit": "%"}, {"measurement": "viability, T/C", "setting": "[25]", "result": 92.6, "unit": "%"}, {"measurement": "viability, T/C", "setting": "[26]", "result": 89.2, "unit": "%"}, {"measurement": "viability, T/C", "setting": "[27]", "result": 87.1, "unit": "%"}, {"measurement": "viability, T/C", "setting": "[28]", "result": 93.2, "unit": "%"}, {"measurement": "viability, T/C", "setting": "[29]", "result": 92.5, "unit": "%"}, {"measurement": "viability, T/C", "setting": "[30]", "result": 28.4, "unit": "%"}, {"measurement": "viability, T/C", "setting": "[31]", "result": 81.7, "unit": "%"}, {"measurement": "viability, T/C", "setting": "[32]", "result": 61.5, "unit": "%"}, {"measurement": "viability, T/C", "setting": "[33]", "result": 91.2, "unit": "%"}, {"measurement": "viability, T/C", "setting": "[34]", "result": 86.5, "unit": "%"}, {"measurement": "viability, T/C", "setting": "[35]", "result": 73.4, "unit": "%"}, {"measurement": "viability, T/C", "setting": "[36]", "result": 26.1, "unit": "%"}]}
